According to patent publication US20240142676A1, “COMPOUND, COMPOSITION, CURED PRODUCT, OPTICALLY ANISOTROPIC BODY, OPTICAL ELEMENT, AND LIGHT GUIDE ELEMENT” (FUJIFILM Corporation, priority 2021, published 2024):

What was measured:
Type in all cases: physicochemical
[1] = Evaluation of solubility in methyl ethyl ketone; settings: precipitation concentration in methyl ethyl ketone at room temperature (25° C.)
Procedure: The solubility of each of the compounds (the compounds A-1 to A-6 and the compounds B-1 and B-2) in methyl ethyl ketone was evaluated.

[2] = Measurement of Δn (refractive index anisotropy), wedge-shaped liquid crystal cell; settings: wavelength 550 nm, 30° C. or lower limit temperature of nematic phase+0° C. to 10° C.; extrapolated from 1/2 mixture with L-1-1 where needed
Procedure: The Δn of each of the compounds (the compounds A-1 to A-6 and the compounds B-1 and B-2), which are the compounds to be measured, was measured by a method using a wedge-shaped liquid crystal cell described on page 202 in the Liquid crystal handbook (edited by the liquid crystal handbook editorial board, published by Maruzen Co., Ltd., 2000). Δn was defined as a measured value at a wavelength of 550 nm at 30° C. or the lower limit temperature of the nematic phase+0° C. to 10° C. In a case of a compound which is liable to crystallize or a compound having no liquid crystallinity, evaluation was carried out using a mixture thereof with the other liquid crystal compound, and Δn was estimated from the extrapolated value of the measured value thereof.
The following L-1-1 was used as the other liquid crystal compound. As the above mixture, a mixture obtained by mixing at a ratio of the compound to be measured/the L-1-1=1/2 (in terms of mass ratio) was used.
A case where Δn was 0.35 or more was evaluated as A, a case where Δn was 0.30 or more and less than 0.35 was evaluated as B, and a case where Δn was less than 0.30 was evaluated as C.

[3] = Light resistance evaluation of optically anisotropic layer (Super Xenon Weather Meter); settings: rate of change in Re (550 nm) of layer with 25 parts compound/75 parts L-1; 5 million lx, 50 hours, 63° C., 50% RH, oxygen-blocking
Procedure: As shown below, the light resistance of the optically anisotropic layer produced using the composition containing each of the compounds A-1 to A-6 and the compounds B-1 and B-2 was evaluated.
A coating liquid having the following composition was prepared and applied by spin-coating, onto a rubbing-treated glass attached with an alignment film. Each composition was irradiated with ultraviolet rays of 300 mJ/cm^2 through a filter that cuts light having a wavelength of 350 nm or less on a hot plate which had been heated to a temperature at which a nematic phase is shown, whereby an optically anisotropic layer was produced.
The polymerizable liquid crystal compound L-1 is a mixture obtained by mixing at a ratio of the following L-1-1/L-1-2/L-1-3=84/14/2 (in terms of mass ratio).
The produced optically anisotropic layers for a light resistance test were irradiated with light using a Super Xenon Weather Meter SX75 manufactured by Suga Test Instruments Co., Ltd. Using KU-1000100 manufactured by King Seisakusho Co., Ltd. as a UV cut filter, a light resistance test was carried out by irradiation with 5 million lx of light for 50 hours under an oxygen-blocking condition. The temperature of the specimen to be tested (the temperature inside the test device) was set to 63° C. The relative humidity in the test device was 50% RH.
The Re of the optically anisotropic layer before and after the light resistance test was measured, the light resistance in a case where the rate of change in Re described below was less than 10% was evaluated as A, and the light resistance in a case where the rate of change in Re was 10% or more was evaluated as B. The smaller the rate of change in Re, the more excellent the light resistance.
Rate of change in Re (%)=[100×{|(Re after test)−(Re before test)|}/(Re before test)]
Re was measured with Axoscan manufactured by Axometrics Inc. at a wavelength of 550 nm, and the measurement temperature was set to room temperature.

[4] = Evaluation of liquid crystallinity (hot stage, polarization microscope); design: key: A case of having liquid crystallinity was evaluated as A; a case of having no liquid crystallinity was evaluated as B; settings: heated on a hot stage, observed with a polarization microscope
Procedure: The respective compounds (the compounds A-1 to A-6 and the compounds B-1 and B-2) were heated on a hot stage and observed with a polarization microscope, and the phase transition temperature was measured to evaluate the presence or absence of the liquid crystallinity. A case of having liquid crystallinity was evaluated as A, and a case of having no liquid crystallinity was evaluated as B. The results are shown in Table 1.
Since B-1 has melting points of 200° C. or higher and undergo a polymerization reaction during heating, liquid crystallinity could not be evaluated.

Row | Liquid crystallinity [4] | Structure (SMILES) | Solubility [1] | Δn [2] | Light resistance [3]
1 | A | C=CC(=O)OCCCCOc1ccc(C#Cc2ccc(-c3ccc(C#Cc4ccc(OCCCCOC(=O)C=C)cc4)cc3C)c(C)c2)cc1 [Compound A-3] | A (the solubility in a case where the precipitation concentration was 10% by mass or more was evaluated as A) | B (a case where Δn was 0.30 or more and less than 0.35 was evaluated as B) | A (the light resistance in a case where the rate of change in Re described below was less than 10% was evaluated as A)
2 | A | C=CC(=O)OCCc1ccc(C#Cc2ccc(-c3ccc(C#Cc4ccc(CCOC(=O)C=C)cc4)cc3C)c(C)c2)cc1 [Compound A-1] | A (the solubility in a case where the precipitation concentration was 10% by mass or more was evaluated as A) | B (a case where Δn was 0.30 or more and less than 0.35 was evaluated as B) | A (the light resistance in a case where the rate of change in Re described below was less than 10% was evaluated as A)
3 | A | C=CC(=O)OCCc1ccc(C#Cc2cnc(-c3ncc(C#Cc4ccc(CCOC(=O)C=C)cc4)cc3C)c(C)c2)cc1 [Compound A-6] | A (the solubility in a case where the precipitation concentration was 10% by mass or more was evaluated as A) | B (a case where Δn was 0.30 or more and less than 0.35 was evaluated as B) | A (the light resistance in a case where the rate of change in Re described below was less than 10% was evaluated as A)
4 | A | C=CC(=O)OCCSc1ccc(C#Cc2ccc(-c3ccc(C#Cc4ccc(SCCOC(=O)C=C)cc4)cc3C)c(C)c2)cc1 [Compound A-2] | A (the solubility in a case where the precipitation concentration was 10% by mass or more was evaluated as A) | A (A case where Δn was 0.35 or more was evaluated as A) | A (the light resistance in a case where the rate of change in Re described below was less than 10% was evaluated as A)
